Test results reported in patent US20250213558A1, “T-TYPE CALCIUM CHANNEL MODULATORS COMPRISING A PIPERAZINE OR 1,4-DIAZEPANE CORE AND METHODS OF USE THEREOF” (Praxis Precision Medicines, Inc., priority 2022, published 2025).
Read-outs that look alike come from different tables or passages of the source.

Biological target: T1, Human Cav3.1 calcium channel (Homo sapiens, UniProt O43497)
T1 construct: expressed in transfected cells; host or cells: HEK-293 natClytin/TASK1+Cav3.1 cell line
Assay: Human Cav3.1 calcium channel patch clamp assay (SyncroPatch 384PE; single point and IC50, voltage dependent block)
Format: cell-based
Conditions: for % Inhibition (Single Point Data): Testing Conc 1.25, patch clamp
Summary of the method: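 Automated whole-cell patch clamp at room temperature, cells held at −120 mV; 100 ms step to −20 mV (resting block), then 1600 ms at −65 mV and a second −20 mV step (voltage-dependent block), every 15 s. Peak currents averaged over last 3 sweeps; % inhibition relative to nickel-sensitive current.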

[1] = HEK-293 natClytin/TASK1+Cav3.1 cell line
[2] = voltage dependent block (VDB), HEK-293 natClytin/TASK1+Cav3.1 cell line, read-out: Cav3.1 IC50

T1 sequence (O43497 whole entry): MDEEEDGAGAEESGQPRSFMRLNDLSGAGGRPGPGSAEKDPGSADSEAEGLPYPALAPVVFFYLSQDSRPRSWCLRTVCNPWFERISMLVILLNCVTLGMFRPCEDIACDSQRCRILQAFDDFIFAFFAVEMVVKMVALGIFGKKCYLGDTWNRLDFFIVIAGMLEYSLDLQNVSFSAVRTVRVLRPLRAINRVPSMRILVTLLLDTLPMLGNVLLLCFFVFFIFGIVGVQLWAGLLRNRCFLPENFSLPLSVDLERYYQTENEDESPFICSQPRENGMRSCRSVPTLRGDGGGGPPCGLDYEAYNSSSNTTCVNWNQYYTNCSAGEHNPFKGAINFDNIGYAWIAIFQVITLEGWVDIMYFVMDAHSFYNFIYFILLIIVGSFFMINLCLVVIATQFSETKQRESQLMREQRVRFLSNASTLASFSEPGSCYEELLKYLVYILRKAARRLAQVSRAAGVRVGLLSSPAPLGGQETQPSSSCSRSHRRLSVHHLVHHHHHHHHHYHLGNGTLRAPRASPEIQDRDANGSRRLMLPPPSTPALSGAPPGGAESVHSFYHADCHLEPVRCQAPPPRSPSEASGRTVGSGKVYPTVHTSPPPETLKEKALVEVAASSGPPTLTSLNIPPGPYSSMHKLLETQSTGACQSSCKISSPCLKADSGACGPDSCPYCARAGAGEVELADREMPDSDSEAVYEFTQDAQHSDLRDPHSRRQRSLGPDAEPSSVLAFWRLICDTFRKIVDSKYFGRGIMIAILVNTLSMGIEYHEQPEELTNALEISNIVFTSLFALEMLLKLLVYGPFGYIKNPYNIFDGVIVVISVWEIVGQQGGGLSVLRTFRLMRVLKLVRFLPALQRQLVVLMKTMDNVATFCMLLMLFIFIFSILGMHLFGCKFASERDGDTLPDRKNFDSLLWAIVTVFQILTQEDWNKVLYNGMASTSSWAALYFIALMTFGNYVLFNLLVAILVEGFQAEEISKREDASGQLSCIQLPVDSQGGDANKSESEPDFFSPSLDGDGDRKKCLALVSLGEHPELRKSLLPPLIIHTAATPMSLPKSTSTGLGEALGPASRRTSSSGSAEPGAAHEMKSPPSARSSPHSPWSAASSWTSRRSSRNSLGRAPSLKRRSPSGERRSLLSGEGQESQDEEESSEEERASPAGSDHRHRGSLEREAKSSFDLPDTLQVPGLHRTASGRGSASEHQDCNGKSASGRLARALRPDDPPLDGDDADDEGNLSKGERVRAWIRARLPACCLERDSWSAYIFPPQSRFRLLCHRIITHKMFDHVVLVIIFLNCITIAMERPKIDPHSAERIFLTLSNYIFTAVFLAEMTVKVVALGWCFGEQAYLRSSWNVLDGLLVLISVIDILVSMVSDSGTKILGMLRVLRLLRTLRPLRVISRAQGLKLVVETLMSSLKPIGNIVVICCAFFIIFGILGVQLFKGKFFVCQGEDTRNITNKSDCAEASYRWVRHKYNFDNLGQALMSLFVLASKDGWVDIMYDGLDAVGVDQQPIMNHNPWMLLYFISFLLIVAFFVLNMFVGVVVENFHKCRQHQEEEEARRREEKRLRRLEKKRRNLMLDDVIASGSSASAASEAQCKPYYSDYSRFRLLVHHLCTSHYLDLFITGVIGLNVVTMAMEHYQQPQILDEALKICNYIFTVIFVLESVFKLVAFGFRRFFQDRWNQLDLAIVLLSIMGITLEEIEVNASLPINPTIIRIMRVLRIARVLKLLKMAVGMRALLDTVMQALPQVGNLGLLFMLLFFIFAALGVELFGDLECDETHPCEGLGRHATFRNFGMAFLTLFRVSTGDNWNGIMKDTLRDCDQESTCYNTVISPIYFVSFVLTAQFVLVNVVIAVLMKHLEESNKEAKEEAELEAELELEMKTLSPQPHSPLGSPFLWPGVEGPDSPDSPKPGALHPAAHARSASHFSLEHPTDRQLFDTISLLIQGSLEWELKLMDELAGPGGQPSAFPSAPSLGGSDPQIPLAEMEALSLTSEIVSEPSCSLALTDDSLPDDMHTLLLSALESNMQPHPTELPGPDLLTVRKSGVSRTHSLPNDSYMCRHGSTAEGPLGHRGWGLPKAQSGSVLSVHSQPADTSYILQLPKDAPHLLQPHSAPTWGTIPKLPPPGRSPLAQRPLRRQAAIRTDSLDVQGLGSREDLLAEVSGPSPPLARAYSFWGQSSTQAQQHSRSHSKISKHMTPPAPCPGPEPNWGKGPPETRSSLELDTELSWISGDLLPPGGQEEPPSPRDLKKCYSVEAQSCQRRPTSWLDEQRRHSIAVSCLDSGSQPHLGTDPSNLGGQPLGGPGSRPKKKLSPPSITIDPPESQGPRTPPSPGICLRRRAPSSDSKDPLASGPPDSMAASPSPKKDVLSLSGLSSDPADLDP

Structure (SMILES)	% Inhibition (Single Point Data) [1] [%]	IC50 [2] [µM]	IC50 [µM]
O=C(CN1CC2CC(C1)N2CC(=O)NC1(C(F)(F)F)CC1)Nc1ccc(F)c(Cl)c1 [Compound 240]	80.113	0.329	–
CC(C)(NC(=O)CN1C2CC1CN(CC(=O)Nc1ccc(F)c(Cl)c1)C2)C(F)(F)F [Compound 241]	101.68	–	–
CC(C)(C)NC(=O)CN1C2CC1CN(CC(=O)Nc1ccc(F)c(OC(F)(F)F)c1)C2 [Compound 242]	93.661	0.177	–
O=C(CN1CC2CC(C1)N2CC(=O)NC1(C(F)(F)F)CC1)Nc1ccc(F)c(OC(F)(F)F)c1 [Compound 243]	93.979	0.137	–
CC(C)(C)NC(=O)CN1C2CC1CN(CC(=O)Nc1ccc(F)c(OC(F)F)c1)C2 [Compound 244]	90.346	0.179	–
O=C(CN1CC2CC(C1)N2CC(=O)NC1(C(F)(F)F)CC1)Nc1ccc(F)c(OC(F)F)c1 [Compound 245]	96.987	–	0.0978
CC(C)(C)NC(=O)CN1C[C@H]2C[C@@H]1CN2CC(=O)Nc1ccc(F)c(OC(F)F)c1 [Compound 246]	49.246	1.07	–
CC(C)(C)NC(=O)CN1C[C@@H]2C[C@H]1CN2CC(=O)Nc1ccc(F)c(OC(F)F)c1 [Compound 247]	97.344	–	–
COc1cc(NC(=O)CN2CC3CC(C2)N3CC(=O)NC(C)(C)C)ccc1F [Compound 248]	64.348	0.53	–
CC(C)(C)NC(=O)CN1C2CC1CN(CC(=O)Nc1ccc(F)c(C(F)(F)F)c1)C2 [Compound 249]	99.326	1.01	–
CC(C)(C)NC(=O)CN1C2CC1CN(CC(=O)Nc1ccc(F)c(C(F)F)c1)C2 [Compound 250]	86.981	0.377	–
O=C(CN1CC2CC(C1)N2CC(=O)NC1(C(F)(F)F)CC1)Nc1ccc(F)c(C(F)(F)F)c1 [Compound 251]	80.59	–	–
O=C(CN1CC2CC(C1)N2CC(=O)NC1(C(F)(F)F)CC1)Nc1ccc(F)c(C(F)F)c1 [Compound 252]	72.234	0.579	–
CC(C)(C)NC(=O)CN1C[C@@H]2C[C@H]1CN2CC(=O)Nc1cccc(OC(F)F)c1 [Compound 253]	38.026	1.31	–
CC(C(=O)NC(C)(C)C)N1C2CC1CN(CC(=O)Nc1ccc(F)c(OC(F)F)c1)C2 (stereo not shown) [Compound 254]	93.503	0.115	–
CC(C(=O)Nc1ccc(F)c(OC(F)F)c1)N1CC2CC(C1)N2CC(=O)NC1(C(F)(F)F)CC1 (stereo not shown) [Compound 255]	66.406	0.431	–
CC(C(=O)Nc1ccc(F)c(OC(F)F)c1)N1CC2CC(C1)N2CC(=O)NC(C)(C)C (stereo not shown) [Compound 256]	100.73	–	–
COc1cc(NC(=O)CN2CC3CC(C2)N3CC(=O)NC2(C(F)(F)F)CC2)ccc1F [Compound 257]	89.324	0.232	–
CC(C)(C)NC(=O)CN1C2CC1CN(CC(=O)NC13CC4CC(CC(C4)C1)C3)C2 [Compound 258]	91.927	0.41	–
CC(C)(C)NC(=O)CN1C[C@@H]2C[C@H]1CN2CC(=O)NC12CC3CC(CC(C3)C1)C2 [Compound 259]	91.279	–	–
CC(C(=O)NC(C)(C)C)N1C2CC1CN(CC(=O)Nc1ccc(F)c(Cl)c1)C2 (stereo not shown) [Compound 260]	80.656	0.274	–
